The values below come from patent US8362000B2, “Azetidinyl diamides as monoacylglycerol lipase inhibitors” (Janssen Pharmaceutica NV, priority 2009, dated 2013).

A value given as a limit tells only on which side of the number the result lay.

The target of one test is T1, mutant MGL (Homo sapiens, UniProt Q99685, L169S/L176S).
T1 sequence (Q99685 1-303 L169S/L176S): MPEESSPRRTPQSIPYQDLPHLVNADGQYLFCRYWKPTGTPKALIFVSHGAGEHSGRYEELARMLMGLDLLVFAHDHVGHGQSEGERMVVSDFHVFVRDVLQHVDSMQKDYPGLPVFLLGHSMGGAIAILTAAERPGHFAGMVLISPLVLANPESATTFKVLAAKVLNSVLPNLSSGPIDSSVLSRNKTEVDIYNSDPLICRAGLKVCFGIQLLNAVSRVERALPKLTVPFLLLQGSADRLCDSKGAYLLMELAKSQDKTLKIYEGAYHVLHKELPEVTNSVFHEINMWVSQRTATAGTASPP
Put plainly: MGL ThermoFluor assay - mutant. The format is binding. As to conditions: ThermoFluor concentration-response, read-out: MGL mutant ThermoFluor Kd. Background: DSF heats the sample and reads unfolding from a dye or from intrinsic fluorescence.
By Kd is commonly meant the concentration at which binding is half-saturated. On to `O=C(c1ccccc1)N1CCN(C2CN(C(=O)c3ccc(NC4CCC(F)(F)CC4)cc3)C2)CC1` [Cpd 530], for which the Kd came out at 89 nM. `COc1ccc(-c2ccc(C(=O)N3CC(N4CCN(C(=O)c5ccccc5)CC4)C3)cc2)cc1` [Cpd 34, 1-{1-[(4′-Methoxybiphenyl-4-yl)carbonyl]azetidin-3-yl}-4-(phenylcarbonyl)piperazine]: the Kd came out at 588 nM. Same read-out and setting: the figure for `O=C(c1ccccc1)N1CCN(C2CN(C(=O)c3ccc(Br)cc3)C2)CC1` [Cpd 27, 1-{1-[(4-Bromophenyl)carbonyl]azetidin-3-yl}-4-(phenylcarbonyl)piperazine] is 4550 nM; for `O=C(c1nccs1)N1CCN(C2CN(C(=O)C3CCC(c4ccccc4)CC3)C2)CC1` (stereo not drawn) [Cpd 475] it is 25 nM. Still for that read-out and setting: in the case of `O=C(c1ccc(OCc2ccc(Cl)s2)cc1)N1CC(N2CCN(C(=O)C(F)(F)F)CC2)C1` [Cpd 961] it was 576 nM. On to `O=C(c1ccccc1)N1CCN(C2CN(C(=O)c3ccc(Oc4ccccc4)cc3)C2)CC1` [Cpd 32, 1-{1-[(4-Phenoxyphenyl)carbonyl]azetidin-3-yl}-4-(phenylcarbonyl)piperazine], for which the Kd was 192 nM. Same read-out and setting: in the case of `O=C(c1cc(Br)cc(C(F)(F)F)c1)N1CC(N2CCN(C(=O)c3cscn3)CC2)C1` [Cpd 923] it was 9930 nM; in that of `COc1cc(C(=O)N2CC(N3CCN(C(=O)c4cscn4)CC3)C2)ccc1Br` [Cpd 23, 1-{1-[(4-Bromo-3-methoxyphenyl)carbonyl]azetidin-3-yl}-4-(1,3-thiazol-4-ylcarbonyl)piperazine], 5000 nM. Regarding `Cc1oc(-c2ccccc2)cc1C(=O)N1CC(N2CCN(C(=O)c3ccccc3)CC2)C1` [Cpd 623, 1-{1-[(2-Methyl-5-phenylfuran-3-yl)carbonyl]azetidin-3-yl}-4-(phenylcarbonyl)piperazine], the Kd was 1000 nM. The same measure, in the same setting: in the case of `O=C(/C=C/c1ccccc1Br)N1CC(N2CCN(C(=O)c3ccccc3)CC2)C1` [Cpd 104, 1-{1-[(2E)-3-(2-Bromophenyl)prop-2-enoyl]azetidin-3-yl}-4-(phenylcarbonyl)piperazine] it was 5000 nM; in that of `O=C(c1ccccc1)N1CCN(C2CN(C(=O)c3cccn(Cc4cccc(Cl)c4)c3=O)C2)CC1` [Cpd 562, 1-(3-Chlorobenzyl)-3-({3-[4-(phenylcarbonyl)piperazin-1-yl]azetidin-1-yl}carbonyl)pyridin-2(1H)-one], > 31200 nM. On the same count and under the same terms, in the case of `O=C(c1ccc2[nH]ccc2c1)N1CC(N2CCN(C(=O)c3nccs3)CC2)C1` [Cpd 911, 5-({3-[4-(1,3-Thiazol-2-ylcarbonyl)piperazin-1-yl]azetidin-1-yl}carbonyl)-1H-indole] it was 333 nM.

As to `O=C(c1ccc2c(ccn2C(=O)c2ccc3c(c2)CCN3)c1)N1CC(N2CCN(C(=O)c3nccs3)CC2)C1` [Cpd 988, 1-(2,3-Dihydro-1H-indol-5-ylcarbonyl)-5-({3-[4-(1,3-thiazol-2-ylcarbonyl)piperazin-1-yl]azetidin-1-yl}carbonyl)-1H-indole], the Kd worked out at 40 nM. The same measure, in the same setting: the figure for `O=C(c1ccccc1)N1CCN(C2CN(C(=O)c3cnn(-c4ccccc4)c3C(F)(F)F)C2)CC1` [Cpd 626, 1-(Phenylcarbonyl)-4-(1-{[1-phenyl-5-(trifluoromethyl)-1H-pyrazol-4-yl]carbonyl}azetidin-3-yl)piperazine] is 5020 nM; for `Cc1nc(C(=O)N2CCN(C3CN(C(=O)c4ccc(-c5ccccc5)cc4)C3)CC2)cs1` [Cpd 10, 1-[1-(Biphenyl-4-ylcarbonyl)azetidin-3-yl]-4-[(2-methyl-1,3-thiazol-4-yl)carbonyl]piperazine] it is 556 nM; for `O=C(c1ccccc1)N1CCN(C2CN(C(=O)c3ccc(Oc4ccc(Cl)cc4)cc3)C2)CC1` [Cpd 425] it is 200 nM. Same read-out and setting: in the case of `O=C(c1ccccc1)N1CCN(C2CN(C(=O)c3ccc(CNc4ccccc4F)cc3)C2)CC1` [Cpd 553] it was 372 nM; in that of `O=C(c1ccccc1)N1CCN(C2CN(C(=O)c3ccc(-c4ccccc4)cc3)C2)C(CO)C1` (stereo not drawn) [Cpd 458, {1-[1-(Biphenyl-4-ylcarbonyl)azetidin-3-yl]-4-(phenylcarbonyl)piperazin-2-yl}methanol], 6670 nM. On the same count and under the same terms, the figure for `O=C(c1ccc(C2CCCCC2)cc1)N1CC(N2CCN(C(=O)c3ccccn3)CC2)C1` [Cpd 4, 1-{1-[(4-Cyclohexylphenyl)carbonyl]azetidin-3-yl}-4-(pyridin-2-ylcarbonyl)piperazine] is 143 nM. With `O=C(c1ccccc1)N1CCN(C2CN(C(=O)C3CCC(c4ccccc4)CC3)C2)CC1` (stereo not drawn) [Cpd 106, 1-(Phenylcarbonyl)-4-{1-[(4-phenylcyclohexyl)carbonyl]azetidin-3-yl}piperazine], the Kd was 154 nM. On the same count and under the same terms, the figure for `O=C(c1ccccc1)N1CCN(C2CN(C(=O)c3ccc(N4CCOCC4)cc3)C2)CC1` [Cpd 541, 4-[4-({3-[4-(Phenylcarbonyl)piperazin-1-yl]azetidin-1-yl}carbonyl)phenyl]morpholine] is 1660 nM; for `O=C(c1ccc2c(c1)C(Cc1ccccc1)(Cc1ccccc1)C(=O)N2Cc1ccccc1)N1CC(N2CCN(C(=O)c3nccs3)CC2)C1` [Cpd 1431] it is 35 nM; for `N#Cc1ccc(-c2ccc(C(=O)N3CC(N4CCN(C(=O)c5cscn5)CC4)C3)cc2)cc1` [Cpd 171] it is 708 nM. The same measure, in the same setting: in the case of `CC1CN(C2CN(C(=O)c3cccc(-c4ccccc4)c3)C2)CCN1C(=O)c1nccs1` (stereo not drawn) [Cpd 116] it was 2000 nM; in that of `O=C(c1ccccc1)N1CCN(C2CN(C(=O)c3ccc(Oc4cccc(Cl)c4)cc3)C2)CC1` [Cpd 426], 250 nM; in that of `O=C(c1ccccc1)N1CCN(C2CN(C(=O)c3ccc(-n4cnc5ccccc54)cc3)C2)CC1` [Cpd 48, 1-[4-({3-[4-(Phenylcarbonyl)piperazin-1-yl]azetidin-1-yl}carbonyl)phenyl]-1H-benzimidazole], 1000 nM.

The same test, now with this note: ThermoFluor thermal stability binding assay, read-out: MGL mutant ThermoFluor Kd.
As to `O=C(c1ccc2c(c1)CCCN2c1ccc(C(F)(F)F)cc1)N1CC(N2CCN(C(=O)c3nccs3)CC2)C1` [Cpd 373, 6-({3-[4-(1,3-Thiazol-2-ylcarbonyl)piperazin-1-yl]azetidin-1-yl}carbonyl)-1-[4-(trifluoromethyl)phenyl]-1,2,3,4-tetrahydroquinoline], the Kd was found to be 5.5 nM. Same read-out and setting: in the case of `O=C(c1cscn1)N1CCN(C2CN(C(=O)c3cc(-c4ccccc4)oc3C(F)(F)F)C2)CC1` [Cpd 1397] it was 500 nM. For `CC(=O)N1c2ccc(Br)cc2CCC1C(=O)N1CC(N2CCN(C(=O)c3ccccc3)CC2)C1` (stereo not drawn) [Cpd 378], the Kd was > 76700 nM. In the case of `O=C(c1ccc(OCc2cncc(Cl)c2)cc1)N1CC(N2CCN(C(=O)c3cscn3)CC2)C1` [Cpd 981], the Kd came to 937 nM. In the case of `O=C(c1ccccc1)N1CCN(C2CN(C(=O)c3ccc(OCc4ccncc4)c(Cl)c3)C2)CC1` [Cpd 408], the Kd came out at 1940 nM.

With `N#Cc1csc(C(=O)N2CCN(C3CN(C(=O)c4ccc(-c5ccccc5)cc4)C3)CC2)c1` [Cpd 309], the Kd is 253 nM. Regarding `Cc1nc(-c2cccc(C(F)(F)F)c2)sc1C(=O)N1CC(N2CCN(C(=O)c3nccs3)CC2)C1` [Cpd 1407, 1-[1-({4-Methyl-2-[3-(trifluoromethyl)phenyl]-1,3-thiazol-5-yl}carbonyl)azetidin-3-yl]-4-(1,3-thiazol-2-ylcarbonyl)piperazine], the Kd is 5 nM. Still for that read-out and setting: the figure for `O=C(/C=C/c1ccccc1Br)N1CC(N2CCN(C(=O)c3nccs3)CC2)C1` [Cpd 296, 1-{1-[(2E)-3-(2-Bromophenyl)prop-2-enoyl]azetidin-3-yl}-4-(1,3-thiazol-2-ylcarbonyl)piperazine] is 476 nM; for `CC(=O)Nc1cccc(-c2ccc(C(=O)N3CC(N4CCN(C(=O)c5nccs5)CC4)C3)cc2)c1` [Cpd 234, N-[4′-({3-[4-(1,3-Thiazol-2-ylcarbonyl)piperazin-1-yl]azetidin-1-yl}carbonyl)biphenyl-3-yl]acetamide] it is 47.6 nM. With `O=C(c1ccccc1)N1CCN(C2CN(C(=O)c3ccc(OCc4ccncc4)cc3)C2)CC1` [Cpd 396], the Kd was determined as 4270 nM. Same read-out and setting: in the case of `O=C(c1cscn1)N1CCN(C2CN(C(=O)c3cccc4nc(-c5cccc(Cl)c5)[nH]c34)C2)CC1` [Cpd 1389] it was 422 nM; in that of `O=C(c1nccs1)N1CCN(C2CN(C(=O)c3ccc(-c4cccc(C(F)(F)F)c4)cc3F)C2)CC1` [Cpd 244, 1-(1-{[3-Fluoro-3′-(trifluoromethyl)biphenyl-4-yl]carbonyl}azetidin-3-yl)-4-(1,3-thiazol-2-ylcarbonyl)piperazine], 2 nM.

In the case of `O=C(C=Cc1ccc2ccccc2c1)N1CC(N2CCN(C(=O)c3nccs3)CC2)C1` [Cpd 297], the Kd was 333 nM. As for `O=C(c1ccccc1)N1CCN(C2CN(C(=O)c3ccc(OCc4ccc(Cl)c(Cl)c4)c(Cl)c3)C2)CC1` [Cpd 399], the Kd worked out at 40.8 nM. On the same count and under the same terms, the figure for `O=C(c1ccccc1)N1CCN(C2CN(C(=O)c3ccc(OCc4cccc(Cl)c4Cl)c(F)c3)C2)CC1` [Cpd 483] is 20 nM; for `CS(=O)(=O)c1cccc(-c2ccc(C(=O)N3CC(N4CCN(C(=O)c5ccccc5)CC4)C3)cc2)c1` [Cpd 231, 1-(1-{[3′-(Methylsulfonyl)biphenyl-4-yl]carbonyl}azetidin-3-yl)-4-(phenylcarbonyl)piperazine] it is 143 nM. As for `O=C(c1ccc(OCc2ccc(Cl)s2)cc1)N1CC(N2CCN(C(=O)c3cscn3)CC2)C1` [Cpd 963], the Kd was determined as 102 nM.

In the case of `CC(=O)N1CCC(c2ccc(C(=O)N3CC(N4CCN(C(=O)c5ccccc5)CC4)C3)cc2)CC1` [Cpd 546], the Kd worked out at 12400 nM. Same read-out and setting: the figure for `CS(=O)(=O)N1CCCc2cc(C(=O)N3CC(N4CCN(C(=O)c5ccccc5)CC4)C3)ccc21` [Cpd 363, 1-(Methylsulfonyl)-6-({3-[4-(phenylcarbonyl)piperazin-1-yl]azetidin-1-yl}carbonyl)-1,2,3,4-tetrahydroquinoline] is 6760 nM.
